Measurements reported in patent US20220280594A1, “APPLICATION OF POLYPEPTIDE OR DERIVATIVE THEREOF” (CHENGDU HUITAI BIOMEDICINE CO., LTD., priority 2019, published 2022).
Ends that are not written are not given here. PEG = not defined here

What was measured:
Type in all cases: cell-based
[1] = system: human liver cancer cells (HepG2); experiment: scratch assay, migration of HepG2 cells; conditions: HepG2, 10 μM, 48 hours; control group 71.01 ± 6.63
Procedure: (§1) In the scratch assay, the cell migration rate was negatively correlated with the inhibitory effect of the drug component on tumor cell migration ability. The cell migration inhibition experiment was described as follows: tumor cells were cultured in vitro, cells in logarithmic growth phase were collected and seeded evenly in a 24-well plate at a density of 1-2×10^5 cells/well; the cells were cultured in a cell incubator until a monolayer was formed; a scratch tool was used to make a “-” (straight) scratch on the monolayer of cells; the cells were washed 1-3 times with PBS, and a medium (with 2% fetal bovine serum) containing specific test components was added to the culture. Experimental grouping: PBS control group; polypeptide or derivative thereof treatment group (N1-N54), 10 μM. Three independent parallel wells were set up in each group, and the cells were cultured continuously in a cell incubator for 48 hours. […] At least 3 representative images for each well were taken. ImageJ software was used to count the migration distance of the cells, and the cell migration rate was calculated as: cell migration rate (%)=(width of original scratch−width of current scratch)/width of original scratch×100.
This example was a scratch assay to evaluate the inhibitory effect of the polypeptide or derivative thereof (N1-N54) on the migration ability of human liver cancer cells (HepG2). The experimental method was as described in Example 2.

[2] = system: human lung squamous carcinoma cells (NCI-H226); experiment: scratch assay, migration of NCI-H226 cells; conditions: NCI-H226, 10 μM, 48 hours; control group 65.31 ± 3.19
Procedure: as §1
This example was a scratch assay to evaluate the inhibitory effect of the polypeptide or derivative thereof (N1-N54) on the migration ability of human lung squamous carcinoma cells (NCI-H226). The experimental method was as described in Example 2.

[3] = system: human breast cancer cells (MCF-7); experiment: scratch assay, migration of MCF-7 cells; conditions: MCF-7, 10 μM, 48 hours; control group 30.97 ± 1.79
Procedure: as §1
This example was a scratch assay to evaluate the inhibitory effect of the polypeptide or derivative thereof (N1-N54) on the migration ability of human breast cancer cells (MCF-7). The experimental method was as described in Example 2.

[4] = system: human non-small cell lung cancer cells (A549); experiment: scratch assay, migration of A549 cells; conditions: A549, 10 μM, 48 hours; control group 75.31 ± 8.19
Procedure: as §1
This example was a scratch assay to evaluate the inhibitory effect of the polypeptide or derivative thereof (N1-N54) on the migration ability of human non-small cell lung cancer (A549). The experimental method was as described in Example 2.

[5] = system: human lung cancer cells (95D); experiment: scratch assay, migration of 95D cells; conditions: 10 μM, 48 hours, control group 55.3 ± 3.19
Procedure: as §1
This example was a scratch assay to evaluate the inhibitory effect of the polypeptide or derivative thereof (N1-N54) on the migration ability of human lung cancer cells (95D). The experimental method was as described in Example 2.

[6] = system: human oral epidermoid carcinoma KB cells; experiment: scratch assay, migration of KB cells; conditions: 10 μM, 48 hours, control group 54.03 ± 4.21
Procedure: as §1
This example was a scratch assay to evaluate the inhibitory effect of the polypeptide or derivative thereof (N1-N54) on the migration ability of human oral epidermoid carcinoma cells (KB). The experimental method was as described in Example 2.

[7] = system: human prostate cancer cells (22RV1); experiment: scratch assay, migration of 22RV1 cells; conditions: 22RV1, 10 μM, 48 hours; control group 25.41 ± 5.01
Procedure: as §1
This example was a scratch assay to evaluate the inhibitory effect of the polypeptide or derivative thereof (N1-N54) on the migration ability of human prostate cancer cells (22RV1). The experimental method was as described in Example 2.

[8] = system: human pancreatic cancer cells (PANC-1); experiment: scratch assay, migration of PANC-1 cells; conditions: PANC-1, 10 μM, 48 hours; control group 66.65 ± 3.37
Procedure: as §1
This example was a scratch assay to evaluate the inhibitory effect of the polypeptide or derivative thereof (N1-N54) on the migration ability of human pancreatic cancer cells (PANC-1). The experimental method was as described in Example 2.

[9] = system: human colon cancer cells (HCT-116); experiment: scratch assay, migration of HCT-116 cells; conditions: HCT-116, 10 μM, 48 hours; control group 47.78 ± 6.07
Procedure: as §1
This example was a scratch assay to evaluate the inhibitory effect of the polypeptide or derivative thereof (N1-N54) on the migration ability of human colon cancer cells (HCT-116). The experimental method was as described in Example 2.

[10] = system: human melanoma cells (A375); experiment: scratch assay, migration of A375 cells; conditions: A375, 10 μM, 48 hours; control group 44.03 ± 6.21
Procedure: as §1
This example was a scratch assay to evaluate the inhibitory effect of the polypeptide or derivative thereof (N1-N54) on the migration ability of human melanoma cells (A375). The experimental method was as described in Example 2.

[11] = system: human thyroid cancer cells (FRO); experiment: scratch assay, migration of FRO cells; conditions: 10 μM, 48 hours, control group 60.34 ± 8.32
Procedure: as §1
This example was a scratch assay to evaluate the inhibitory effect of the polypeptide or derivative thereof (N1-N54) on the migration ability of human thyroid cancer cells (FRO). The experimental method was as described in Example 2.

[12] = system: human breast cancer cells (MDA-MB-231); experiment: scratch assay, migration of MDA-MB-231 cells; conditions: MDA-MB-231, 10 μM, 48 hours; control group 36.19 ± 5.15
Procedure: as §1
This example was a scratch assay to evaluate the inhibitory effect of the polypeptide or derivative thereof (N1-N54) on the migration ability of human breast cancer cells (MDA-MB-231). The experimental method was as described in Example 2.

[13] = system: human breast cancer cells (MDA-MB-453); experiment: scratch assay, migration of MDA-MB-453 cells; conditions: MDA-MB-453, 10 μM, 48 hours; control group 32.42 ± 2.04
Procedure: as §1
This example was a scratch assay to evaluate the inhibitory effect of the polypeptide or derivative thereof (N1-N54) on the migration ability of human breast cancer cells (MDA-MB-453). The experimental method was as described in Example 2.

[14] = system: human pharyngeal squamous-cell carcinoma cells (Fadu); experiment: scratch assay, migration of Fadu cells; conditions: 10 μM, 48 hours, control group 28.76 ± 4.08
Procedure: as §1
This example was a scratch assay to evaluate the inhibitory effect of the polypeptide or derivative thereof (N1-N54) on the migration ability of human pharyngeal squamous-cell carcinoma cells (Fadu). The experimental method was as described in Example 2.

| Substance | Migration rate (%) (mean ± SD, P) [1] | Migration rate (%) (mean ± SD, P) [2] | Migration rate (%) (mean ± SD, P) [3] | Migration rate (%) (mean ± SD, P) [4] | Migration rate (%) (mean ± SD, P) [5] | Migration rate (%) (mean ± SD, P) [6] | Migration rate (%) (mean ± SD, P) [7] | Migration rate (%) (mean ± SD, P) [8] | Migration rate (%) (mean ± SD, P) [9] | Migration rate (%) (mean ± SD, P) [10] | Migration rate (%) (mean ± SD, P) [11] | Migration rate (%) (mean ± SD, P) [12] | Migration rate (%) (mean ± SD, P) [13] | Migration rate (%) (mean ± SD, P) [14] |
| --- | --- | --- | --- | --- | --- | --- | --- | --- | --- | --- | --- | --- | --- | --- |
| N53: SEQ ID NO: 1 with A15R, one amino acid added at each terminal, PEG modification at the carboxyl terminal (FYRVRFLAKENVTQDREDNC-{PEG}; reading uncertain) | 35.85 ± 4.32,** % | 41.05 ± 4.60,** % | 9.45 ± 2.39,** % | 58.05 ± 3.60,* % | 21.05 ± 6.60,** % | 8.83 ± 1.75,*** % | 10.75 ± 3.22,* % | 15.85 ± 7.32,*** % | 14.42 ± 3.21,*** % | 18.83 ± 4.71,** % | 20.32 ± 4.58,** % | 18.05 ± 6.08,* % | 8.02 ± 3.35,*** % | 13.8 ± 3.05,** % |
| N16: SEQ ID NO: 1 with substitution A7R and addition of one amino acid at the carboxyl terminus (YRVRFLRKENVTQDAEDNC) | 43.25 ± 5.18,** % | 21.10 ± 8.01,*** % | 9.81 ± 3.29,** % | 30.57 ± 5.41,** % | 17.00 ± 8.00,** % | 18.28 ± 3.45,** % | 9.75 ± 2.14,** % | 19.15 ± 4.97,*** % | 9.39 ± 2.06,*** % | 11.28 ± 3.14,*** % | 11.72 ± 4.41,*** % | 14.99 ± 6.11,* % | 8.11 ± 1.71,*** % | 5.51 ± 1.32,*** % |
| N48: SEQ ID NO: 1 with A7R, deletion of position 11 and position 18, PEG modification at the carboxyl terminal (YRVRFLRKENTQDAED-{PEG}; reading uncertain) | 25.43 ± 5.00,*** % | 25.07 ± 4.31,*** % | 15.62 ± 2.70,* % | 22.04 ± 3.01,*** % | 25.07 ± 6.31,** % | 9.09 ± 4.23,*** % | 5.61 ± 3.14,** % | 20.60 ± 4.71,*** % | 18.03 ± 4.62,** % | 9.09 ± 2.23,*** % | 13.78 ± 2.61,*** % | 13.06 ± 3.2,** % | 12.62 ± 3.25,** % | 8.78 ± 4.34,*** % |
| N51: SEQ ID NO: 1 with A15R, one amino acid added at each terminal, PEG modification at the amino terminal ({PEG}-FYRVRFLAKENVTQDREDNC; reading uncertain) | 28.61 ± 5.89,** % | 33.16 ± 4.43,** % | 8.56 ± 4.18,** % | 53.59 ± 5.62,* % | 30.04 ± 5.08,** % | 37.96 ± 3.60,* % | 5.23 ± 2.42,** % | 20.85 ± 8.10,*** % | 16.11 ± 3.20,** % | 17.96 ± 3.20,** % | 17.93 ± 5.55,** % | 14.5 ± 2.68,** % | 10.6 ± 2.33,*** % | 8.71 ± 1.79,*** % |
| N11: SEQ ID NO: 1 with deletion of positions 15-18 and 1-3 and PEG modification at the amino terminal ({PEG}-RFLAKENVTQD; reading uncertain) | 53.36 ± 5.49,* % | 21.77 ± 5.03,*** % | 9.34 ± 3.74,** % | 30.79 ± 6.74,** % | 28.28 ± 3.68,*** % | 8.29 ± 1.96,*** % | 9.43 ± 2.23,** % | 28.37 ± 7.57,** % | 13.81 ± 2.92,*** % | 11.54 ± 2.23,*** % | 10.09 ± 4.33,*** % | 10.68 ± 5.72,** % | 4.49 ± 1.6,*** % | 19 ± 5.37,* % |
| N45: SEQ ID NO: 1 with V11R, deletion of positions 1-5 and 15-18, PEG modification at the carboxyl terminal (LAKENRTQD-{PEG}; reading uncertain) | 52.98 ± 4.08,* % | 23.76 ± 5.38,*** % | 17.06 ± 2.87,* % | 56.03 ± 4.21,* % | 33.76 ± 5.38,** % | 8.79 ± 2.28,*** % | 11.63 ± 2.82,* % | 45.16 ± 5.74,** % | 28.34 ± 2.87,** % | 18.79 ± 2.28,** % | 24.22 ± 6.27,** % | 13.02 ± 4.54,** % | 5.53 ± 2.87,*** % | 9.34 ± 2.86,*** % |
